Patent US9096601B2 (CSPC Zhongqi Pharmaceutical Technology (Shijiazhuang) Co., …, priority 2010, dated 2015)
Read-outs that look alike come from different tables or passages of the source.

Assays:
[1] = test system: breast carcinoma cell strain BT474; test: In-vitro tumor cell proliferation inhibition, MTT; type: cell-based, human
Summary of the method: (§1)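 A431, HCC827, SW620 and BT474 cells (HCC827 seeded at 6×10^4 cells/ml) treated overnight-after-plating with graded compound concentrations for 72 h at 37° C; MTT read at 570 nm. Inhibition calculated versus untreated control, triplicate wells, ≥3 repeats; reported as IC50 or inhibitory rate.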

[2] = test system: colon cancer cell strain HCT116; test: In-vitro tumor cell proliferation inhibition, MTT; type: cell-based, human
[3] = test system: colon cancer cell strain SW480; test: In-vitro tumor cell proliferation inhibition, MTT; type: cell-based, human
[4] = test system: malignant melanoma cell strain A375; test: In-vitro tumor cell proliferation inhibition, MTT; type: cell-based, human
[5] = test system: acute myelogenous leukemia cell strain MV4-11; test: In-vitro tumor cell proliferation inhibition, MTT; type: cell-based, human
[6] = test system: gastric cancer cell strain MK-45; test: In-vitro tumor cell proliferation inhibition, MTT; type: cell-based, human; conditions: 72 hours, read-out: MK45 (IC50)
[7] = test system: liver cancer cell strain Hep G2; test: In-vitro tumor cell proliferation inhibition, MTT; type: cell-based, human
[8] = test system: colon cancer cell strain SW620; test: In-vitro tumor cell proliferation inhibition, MTT; type: cell-based, human
Summary of the method: as §1

[9] = test system: squamous cell carcinoma cell strain A431; test: In-vitro tumor cell proliferation inhibition, MTT; type: cell-based, human
Summary of the method: as §1

[10] = test system: chronic granulocytic leukemia cell strain K562; test: In-vitro tumor cell proliferation inhibition, MTT; type: cell-based, human
[11] = test system: breast carcinoma cell strain MDA-MB-468; test: In-vitro tumor cell proliferation inhibition, MTT; type: cell-based, human
[12] = test system: human non-small cell lung carcinoma cell strain HCC827; test: In-vivo anti-tumor test, nude mouse subcutaneously transplanted non-small cell lung carcinoma model; conditions: nude mice, intragastric
Description: The object of this assay was to determine the in-vivo anti-tumor effect of the present compound. In this assay, a nude mouse subcutaneously transplanted non-small cell lung carcinoma model was used to test the present compound 8-10 for the in-vivo anti-tumor activity. The used cell strain was human non-small cell lung carcinoma cell strain HCC827.
BALB/C nude mice, aged 6-8 weeks, were inoculated with HCC827 cell subcutaneously at the posterior segment of rib in a concentration of about 5×10^6 cells/0.1 ml per mouse. Upon the growth of the tumor up to 200-300 mm^3 (about 20 days), mice were grouped (n=6) and administrated intragastrically.
Observation Indices: the mice were measured every three days for the weight, and the length and width of tumor, and the tumor volume was calculated as length×width^2×0.52. […] 3. Results

[13] = 72 hours, read-out: HEPG2 (IC50)

Structure (SMILES)	IC50 ([1]; 72 hours)	IC50 ([2]; 72 hours)	IC50 ([3]; 72 hours)	IC50 ([4]; 72 hours)	IC50 ([5]; 72 hours)	IC50 [6]	IC50 [7, 13]	IC50 ([8]; 72 hours)	IC50 ([9]; 72 hours)	IC50 ([10]; 72 hours)	IC50 ([11]; 72 hours)	also measured
CC(C)n1c(Nc2ccccc2)nc2cnc(Nc3ccc(C(=O)NN4CCN(C)CC4)cc3)nc21 [Compound 8-1]	2130 nM	> 10000 nM	5720 nM	3020 nM	89 nM	6800 nM	> 10000 nM	> 10000 nM	2060 nM	1080 nM	2060 nM	–
CC(C)n1c(Nc2ccc(F)c(Cl)c2)nc2cnc(Nc3ccc(C(=O)NN4CCN(C)CC4)cc3)nc21 [Compound 8-2]	1860 nM	7810 nM	> 10000 nM	1590 nM	1770 nM	> 1000 nM	> 10000 nM	5570 nM	9290 nM	3730 nM	6130 nM	–
COc1cc(C(=O)NN2CCN(C)CC2)ccc1Nc1ncc2nc(Nc3ccccc3)n(C(C)C)c2n1 [Compound 8-7, 3-methoxy-4-(9-isopropyl-8-phenylamino-9H-purin-2-ylamino)-N-(4-methylpiperazin-1-yl)benzamide]	–	–	–	–	–	–	–	–	–	–	–	IC50 ([1]; Homo sapiens, BT-474, 72 hours): 5820 nM; IC50 ([2]; Homo sapiens, HCT-116, 72 hours): > 10000 nM; IC50 ([3]; Homo sapiens, SW480, 72 hours): > 10000 nM; IC50 ([4]; Homo sapiens, A-375, 72 hours): 1310 nM; IC50 ([5]; Homo sapiens, MV4-11, 72 hours): > 10000 nM; IC50 ([6]; Homo sapiens): 3760 nM; IC50 ([7]; Homo sapiens, HepG2, 72 hours): > 10000 nM; IC50 ([8]; Homo sapiens, SW-620, 72 hours): > 10000 nM; IC50 ([9]; Homo sapiens, A-431, 72 hours): > 10000 nM; IC50 ([10]; Homo sapiens, K562, 72 hours): > 10000 nM; IC50 ([11]; Homo sapiens, MDA-MB-468, 72 hours): > 10000 nM
CC(C)n1c(Nc2ccccc2)nc2cnc(Nc3ccc(C(=O)NC4CCN(C)CC4)cc3)nc21 [Compounds 8-9]	1030 nM	518 nM	> 10000 nM	586 nM	235 nM	764 nM	> 10000 nM	524 nM	1530 nM	143 nM	1320 nM	–
CC(C)n1c(Nc2ccccc2)nc2cnc(Nc3ccc(N4CCN(C)CC4)cc3)nc21 [Compounds 8-10]	226 nM	1090 nM	> 10000 nM	1490 nM	102 nM	> 1000 nM	4800 nM	6060 nM	1580 nM	106 nM	700 nM	in-vivo tumor growth inhibition ([12]; HCC827 xenograft, 2 mg/kg q.d. or higher (2, 5, 10, 20 mg/kg q.d.)): substantial in-vivo growth inhibition; toxicity (untoward reactions: weight reduction, exanthema, diarrhea) ([12]; 2-20 mg/kg q.d.): low toxicity
CC(C)n1c(Nc2cccc(Br)c2)nc2cnc(Nc3ccc(N4CCN(C)CC4)cc3)nc21 [Compounds 8-11]	575 nM	1680 nM	> 10000 nM	1390 nM	3760 nM	> 1000 nM	11200 nM	1960 nM	7670 nM	366 nM	1190 nM	–
C#Cc1cccc(Nc2nc3cnc(Nc4ccc(N5CCN(C)CC5)cc4)nc3n2C(C)C)c1 [Compounds 8-12]	2140 nM	4010 nM	> 10000 nM	3090 nM	1710 nM	> 1000 nM	6610 nM	1290 nM	2570 nM	221 nM	3220 nM	–
CC(C)n1c(Nc2ccc(F)c(Cl)c2)nc2cnc(Nc3ccc(N4CCN(C)CC4)cc3)nc21 [Compounds 8-13]	202 nM	2540 nM	> 10000 nM	838 nM	512 nM	> 1000 nM	5960 nM	3680 nM	1290 nM	86 nM	2100 nM	–
CC(C)n1c(Nc2ccc(Br)cc2)nc2cnc(Nc3ccc(N4CCN(C)CC4)cc3)nc21 [Compounds 8-15]	1920 nM	2200 nM	> 10000 nM	775 nM	197 nM	710 nM	7790 nM	2990 nM	9400 nM	303 nM	2300 nM	–
CC(C)n1c(Nc2cccc(C(F)(F)F)c2)nc2cnc(Nc3ccc(N4CCN(C)CC4)cc3)nc21 [Compounds 8-16]	1370 nM	766 nM	6480 nM	3100 nM	4800 nM	> 1000 nM	10400 nM	864 nM	5880 nM	2520 nM	1960 nM	–
COc1cccc(Nc2nc3cnc(Nc4ccc(N5CCN(C)CC5)cc4)nc3n2C(C)C)c1 [Compounds 8-17]	635 nM	813 nM	> 10000 nM	190 nM	684 nM	664 nM	> 10000 nM	> 1000 nM	8460 nM	3 nM	783 nM	–
COc1ccc(Nc2nc3cnc(Nc4ccc(N5CCN(C)CC5)cc4)nc3n2C(C)C)cc1 [Compounds 8-18]	2120 nM	6290 nM	> 10000 nM	6460 nM	183 nM	1520 nM	> 10000 nM	4000 nM	6350 nM	1220 nM	3170 nM	–
CC(C)n1c(Nc2ccc(NC(=O)Nc3ccc(F)c(Cl)c3)cc2)nc2cnc(Nc3ccc(N4CCN(C)CC4)cc3)nc21 [Compounds 8-21]	1590 nM	772 nM	> 10000 nM	725 nM	279 nM	1330 nM	8930 nM	2220 nM	5720 nM	1340 nM	890 nM	–
CC(C)n1c(Nc2ccc(C(=O)Nc3cccc(F)c3)cc2)nc2cnc(Nc3ccc(N4CCN(C)CC4)cc3)nc21 [Compounds 8-22]	1720 nM	1830 nM	> 10000 nM	1300 nM	283 nM	511 nM	> 10000 nM	1920 nM	5520 nM	921 nM	1720 nM	–
CN1CCN(c2ccc(Nc3ncc4nc(Nc5ccccc5)n(C5CC5)c4n3)cc2)CC1 [Compounds 8-23]	6810 nM	> 10000 nM	> 10000 nM	3180 nM	241 nM	2790 nM	> 10000 nM	> 10000 nM	7040 nM	5200 nM	5220 nM	–
CN1CCN(c2ccc(Nc3ncc4nc(Nc5ccccc5)n(C)c4n3)cc2)CC1 [Compounds 8-24]	2410 nM	1380 nM	> 10000 nM	2400 nM	288 nM	8080 nM	> 10000 nM	> 10000 nM	9650 nM	1420 nM	9650 nM	–
CN1CCN(c2ccc(Nc3ncc4nc(Nc5ccccc5)[nH]c4n3)cc2)CC1 [Compounds 8-25]	9990 nM	> 10000 nM	> 10000 nM	> 10000 nM	7900 nM	5350 nM	> 10000 nM	> 10000 nM	> 10000 nM	> 10000 nM	> 10000 nM	–
CC(C)n1c(Nc2ccc(C(F)(F)F)cc2)nc2cnc(Nc3ccc(N4CCN(C)CC4)cc3)nc21 [Compounds 8-27]	1180 nM	> 1000 nM	2600 nM	9790 nM	88 nM	6110 nM	> 1000 nM	> 1000 nM	2350 nM	777 nM	1960 nM	–
CC(C)n1c(NC2CCCCC2)nc2cnc(Nc3ccc(N4CCN(C)CC4)cc3)nc21 [Compounds 8-30]	4460 nM	> 10000 nM	> 10000 nM	> 10000 nM	7960 nM	5470 nM	> 10000 nM	4220 nM	> 10000 nM	5760 nM	> 10000 nM	–
C=CC(=O)Nc1cccc(Nc2ncc3nc(Nc4ccccc4)n(C(C)C)c3n2)c1 [Compounds 8-38]	1680 nM	443 nM	> 10000 nM	> 10000 nM	730 nM	1790 nM	2900 nM	370 nM	179 nM	268 nM	280 nM	–
